Measured values reported in patent US20240408271A1, “Functionalized Linkers in Responsive Biomaterials” (priority 2021, published 2024).

Assays:
[1] = cited from earlier work
[2] = EPTK degradation and ethyl pyruvate release in H2O2 (NMR, HPLC); type: physicochemical
Description: FIG. 13B is an NMR spectrum of the thioketal peak after three days of degradation in varying ROS concentrations
A new thioketal linker was synthesized containing the small molecule therapeutic ethyl pyruvate (FIG. 12).

MC3T3-E1 cells = type: cell-based; conditions: MC3T3-E1, + 1 mM H2O2
Description: FIG. 14C is a graph showing a cell saving study capability test of released ethyl pyruvate and degraded ethyl pyruvate.
(§1) As shown in FIGS. 14A and 14B, in vitro cytotoxicity profiles were first established for H2O2 and ethyl pyruvate with MC3T3-E1 pre-osteoblast cells.

[3] = system: MC3T3-E1 pre-osteoblast cells
Description: FIG. 14A is a graph showing in vitro testing with MC3T3-E1 pre-osteoblast cells to establish cytotoxicity of hydrogen peroxide.
FIG. 14B is a graph showing in vitro testing with MC3T3-E1 pre-osteoblast cells to establish cytotoxicity of ethyl pyruvate.
as §1

Compound: Cc1ccc(C(=O)c2ccc(CC(=O)O)n2C)cc1 [tolmetin]
- Log P [1]: 2.07

Compound: ethyl pyruvate thioketal [EPTK]
- release of intact ethyl pyruvate ([2]; 200 mM H2O2 for 48 hrs, HPLC): intact ethyl pyruvate matching the original drug's character was released
- degradation of thioketal bond ([2]; escalating doses of H2O2, NMR, three days): dose-dependent degradation
- rate of ethyl pyruvate release ([2]; increasing doses of ROS): increased the rate of ethyl pyruvate release
- protection of cells from oxidative toxicity (MC3T3-E1 cells): some inherent antioxidant protection

Compound: CC(=O)[C@H]1CC[C@H]2[C@@H]3CCC4=CC(=O)CC[C@]4(C)[C@H]3CC[C@]12C [progesterone]
- Log P [1]: 3.78

Compound: OO [H2O2, hydrogen peroxide]
- cell death ([3]; dose of 1 mM, over 24 hrs, MC3T3-E1): ~50%

Compound: CCOC(=O)C(C)=O [ethyl pyruvate]
- protection of cells from oxidative toxicity (MC3T3-E1 cells): robust protection
- dose at which toxicity is displayed ([3]; mouse): ≥ 10 mM
